These results are taken from the Deep4Chem optical property database.

Molecules are shown by their SMILES.

This series in a line: solvent given as SMILES.

In the case of `CC(C)[Si](C#Cc1c2nsnc2c(C#C[Si](C(C)C)(C(C)C)C(C)C)c2nc3c(ccc4ccccc43)nc12)(C(C)C)C(C)C`, the emission maximum (in CCCCCC) is 617 nm.
Regarding `COc1ccc(/C=C/C2=[O+][B-](F)(F)OC(/C=C/c3ccc(OC)c4ccccc34)=C2c2ccccc2)c2ccccc12`, the emission maximum reads like this: (in CC#N) 649 nm; (in CC(C)=O) 631 nm; (in CCOC(C)=O) 603 nm; (in CCOCC) 583 nm; (in ClC(Cl)(Cl)Cl) 577 nm; (in ClCCl) 633 nm.
With `N#CC(C#N)=Cc1ccc(-c2ccc(N(c3ccccc3)c3ccccc3)cc2)o1`, the emission maximum (in ClC(Cl)Cl) is recorded as 618 nm.
Same read-out and setting: as for `CCC1=C(CC)C(C)=[N+]2C1=Cc1c(C)c3cc4c(cc3n1[B-]2(F)F)=[N+]1C(=Cc2c(CC)c(CC)c(C)n2[B-]1(F)F)C=4C`, the figure is 703 nm.
`CC(C)[Si](C#Cc1c2nsnc2c(C#C[Si](C(C)C)(C(C)C)C(C)C)c2nc3c(nc12)C1c2ccccc2C3c2ccccc21)(C(C)C)C(C)C` gave an emission maximum (in CCCCCC) of 526 nm.
In turn, `COc1ccc2c3c(c4ccc(OC)cc4c2c1)C(C)(C)c1c-3ccc2ccccc12` returned an emission maximum (in C1CCCCC1) of 396 nm.
`COc1ccc(-c2cc3c(s2)-c2sc(-c4ccc(OC)cc4)cc2P(c2ccccc2)(c2ccccc2)=[O+][B-]3(c2c(C)cc(C)cc2C)c2c(C)cc(C)cc2C)cc1`: the emission maximum (in C1CCOC1) came to 513 nm.
Take `CCCCCCOc1ccc(N(c2ccc(OCCCCCC)cc2)c2ccc(-c3sc(-c4ccc(N(c5ccc(OCCCCCC)cc5)c5ccc(OCCCCCC)cc5)cc4)c4nc(-c5ccccc5)c(-c5ccccc5)nc34)cc2)cc1`: the emission maximum turned out to be 770 nm (in C1CCOC1); 793 nm (in CC(C)=O); 768 nm (in CCOC(C)=O); 751 nm (in CCOCC); 806 nm (in CN(C)C=O); 748 nm (in Cc1ccccc1). In addition, the emission maximum by setting is: (in ClC(Cl)Cl) 777 nm; (in ClCCl) 793 nm.
For `COc1ccc(-c2ccc3c(c2)c2cc(-c4ccc(OC)cc4)ccc2n3-c2ccc(C(=O)c3ccc4sc5ccccc5c4c3)nc2)cc1`, the emission maximum (in Cc1ccccc1) stood at 487.2 nm and the emission maximum (in c1cc(-n2c3ccccc3c3ccccc32)cc(-n2c3ccccc3c3ccccc32)c1) is recorded as 493 nm.
`CC(=O)n1cc(/C=C/c2ccc([N+](=O)[O-])cc2)c2ccccc21`: the emission maximum is 428 nm (in CC#N), 408 nm (in CCCCCCC), 424 nm (in CO) and 537 nm (in O).
As for `FC(F)(F)c1ccc(C2=CC3=c4cc(-c5ccc(C(F)(F)F)cc5)c5nc(C(F)(F)C(F)(F)C(F)(F)F)nc6c(-c7ccc(C(F)(F)F)cc7)cc(c4c65)C4=CC(c5ccc(C(F)(F)F)cc5)=C5N=C(C(F)(F)C(F)(F)C(F)(F)F)N=C2C5C43)cc1` (configuration not stated), the emission maximum (in C1CCOC1) amounted to 512 nm.
Molecule `C[Si](C)(C)c1ccc(-c2nc3ccccc3n2-c2ccccc2)cc1` displayed an emission maximum (in ClCCl) of 358 nm.
In the case of `CC1(C)c2ccccc2N(c2ccc(-c3nnc(-c4ccc(N5c6ccccc6C(C)(C)c6ccccc65)cc4)o3)cc2)c2ccccc21`, the emission maximum runs as follows: (in Cc1ccccc1) 461 nm; (in O=P(c1ccccc1)(c1ccccc1)c1ccccc1Oc1ccccc1P(=O)(c1ccccc1)c1ccccc1) 472 nm.
As to `Cc1sc(-c2ccc(-c3nc(-c4ccccc4)c(-c4ccccc4)[nH]3)cc2)c(C)c1C1=C(c2c(C)n(C)c3ccccc23)C(F)(F)C(F)(F)C1(F)F`, the emission maximum (in C1CCOC1) is 392 nm.
As to `Cc1cc2c3ccccc3oc2c2[nH]c3ccccc3c12`, where the note is “in ClCCl”, the emission maximum is reported as 353 nm.
For `Nc1ccc(/C=C/c2ccc3ccccc3c2)cc1`, the emission maximum is given as 450 nm (in CC#N) and 392 nm (in CCCCCC).
As to `CCN(CC)c1ccc2c(c1)oc(=O)c1cc3c(-c4ccccc4)nn(-c4ccccc4)c3nc12`, the emission maximum (in ClCCl) is reported as 509 nm.
On the same count and under the same terms, as for `C(#Cc1cccc2nsnc12)c1ccc(-n2c3ccccc3c3ccccc32)cc1`, the figure is 538 nm.
For the molecule `CCc1c(C)c2n(c1C)[B-](F)(F)[N+]1=C(c3ccc[nH]3)c3ccccc3C1=C2`, the emission maximum runs as follows: (in C1CCOC1) 631 nm; (in CC#N) 628 nm; (in CCCCCC) 626 nm; (in CO) 628 nm; (in Cc1ccccc1) 635 nm; (in ClCCl) 634 nm.
Where the note is “in CC#N”, `c1ccc(-n2c(-c3ccc(-n4c5ccccc5c5ccccc54)cc3)nc3nccnc32)cc1` registered an emission maximum of 490 nm.
`Cc1cccc2cc3c(=O)n(C)c(=O)n(C)c3nc12`: the emission maximum came to 417 nm (in CC#N); 421 nm (in CC(C)O); 423 nm (in CCO); 425 nm (in CO); 417 nm (in ClC(Cl)Cl); 417 nm (in ClCCl).
For `CN(C)c1ccc2c(c1)[Si](C)(C)C1=CC(=[N+](C)C)C=CC1=C2C#Cc1ccccc1`, the emission maximum turned out to be 738 nm (in CO) and 736 nm (in O).
Where the note is “in CC#N”, `C(=C\c1nc(-c2ccccc2)c2ccccn12)/c1nc(-c2ccccc2)c2ccccn12` gave an emission maximum of 491 nm.
Consider `N#Cc1nc(-c2ccc(N3c4ccccc4Oc4ccccc43)cc2)c(-c2ccc(N3c4ccccc4Oc4ccccc43)cc2)nc1C#N`, for which the emission maximum (in c1cc(-c2cccc(-n3c4ccccc4c4ccccc43)c2)cc(-n2c3ccccc3c3ccccc32)c1) was found to be 610 nm.
`Nc1ccc2ccc(O)cc2c1`: the emission maximum (in O) stood at 398 nm.
Molecule `C(#Cc1cccc(C#Cc2ccc(-n3c4ccccc4c4ccccc43)cc2)c1)c1ccc(-n2c3ccccc3c3ccccc32)cc1` yielded an emission maximum (in CC#N) of 425 nm; an emission maximum (in CCCCC) of 366 nm; an emission maximum (in CO) of 412 nm; an emission maximum (in Cc1ccccc1) of 374 nm; an emission maximum (in ClC(Cl)Cl) of 368 nm; an emission maximum (in ClCCl) of 394 nm.
Regarding `CC1=CC2=Nc3nc(C)[n+](C)cc3CN2C=C1`, the emission maximum worked out at 432 nm (in CC#N), 433 nm (in CCO) and 426 nm (in O).
Regarding `CN1CCN(c2ccc3c4c(cccc24)C(=O)c2ccccc2-3)CC1`, the emission maximum is, setting by setting: (in C1CCCCC1) 533 nm; (in C1CCOC1) 593 nm; (in C1COCCO1) 584 nm; (in CC1COC(=O)O1) 619 nm; (in CC#N) 619 nm; (in CC(C)=O) 615 nm. In addition, the emission maximum reads like this: (in CCCCCCCCO) 626 nm; (in CCCCCO) 635 nm; (in CCCCO) 632 nm; (in CCCO) 637 nm; (in CCO) 640 nm; (in CCOC(C)=O) 595 nm. Besides, the emission maximum turned out to be 621 nm (in CN(C)C=O); 645 nm (in CO); 624 nm (in CS(C)=O); 569 nm (in Cc1ccccc1); 601 nm (in ClC(Cl)Cl).
In the case of `c1ccc(-c2nc3ccccc3nc2-c2ccc(-n3c4ccccc4c4ccccc43)cc2)cc1`, the emission maximum (in Cc1ccccc1) was 434 nm.
As for `CCc1cccc(CC)c1-c1c2ccccc2c(C#Cc2ccccc2)c2cc3ccccc3cc12`, where the note is “in ClCCl”, the emission maximum was determined as 538 nm.
Molecule `CCCCCCCCCCCCCCCCOc1cc(C#Cc2ccc3ccccc3c2)c(OCCCCCCCCCCCCCCCC)cc1C#Cc1ccc(C=C(C#N)C#N)cc1` yielded an emission maximum (in Brc1ccccc1) of 582 nm; an emission maximum (in C1CCCCC1) of 484 nm; an emission maximum (in C1CCOC1) of 602 nm; an emission maximum (in C1COCCO1) of 554 nm; an emission maximum (in CCCCCC) of 480 nm; an emission maximum (in CCCCCCCCO) of 596 nm. The emission maximum reads like this: (in CCCCOCCCC) 524 nm; (in CCOC(C)=O) 590 nm; (in CCOCC) 550 nm; (in Cc1ccccc1) 530 nm; (in ClC(Cl)(Cl)Cl) 500 nm; (in ClC(Cl)Cl) 596 nm. Under “in ClCCl”, this molecule came in with an emission maximum of 618 nm.
Take `CCCCn1c2ccccc2c2ccc3c4cc(-c5ccc6ccccc6c5)ccc4n(CCCC)c3c21`: the emission maximum (in ClC(Cl)Cl) is 410 nm.
Regarding `CCCCCn1c2ccc(S(=O)(=O)O)cc2c(=O)c2cc(S(=O)(=O)O)ccc21`, the emission maximum (in CS(C)=O) is 421 nm and the emission maximum (in O) came out at 431 nm.
With `C(#Cc1cc2ccc3cc(C#Cc4ccccc4)cc4ccc(c1)c2c34)c1ccccc1`, for the setting “in Cc1ccccc1”, the emission maximum was 418 nm.
For `CC(=O)c1ccc(-c2cccc3ncc(-c4ccccc4)n23)cc1`, the emission maximum (in ClCCl) stood at 506 nm.
For `CCCCCOc1cc2oc(=O)c3c4ccc(N(c5ccc(C)cc5)c5ccc(C)cc5)cc4c4ccc5cccc6c(c1)c2c3c4c56`, the emission maximum (in C1CCOC1) is 605 nm.
Turning to `N#Cc1ccc(N/N=C/c2ccc3ccccc3c2O)cc1`, the emission maximum is, setting by setting: (in CC#N) 446 nm; (in CCCCCC) 415 nm; (in CO) 482 nm; (in CS(C)=O) 456 nm; (in ClC(Cl)Cl) 425 nm.
For the setting “in Cc1ccccc1”, `COc1cc(C2=c3c(c4ccc(C(C)(C)C)cc4c4c(OC)c(OC)c(OC)cc34)=[N+]3C2=Nc2c(-c4cc(OC)c(OC)c(OC)c4)c4c5cc(OC)c(OC)c(OC)c5c5cc(C(C)(C)C)ccc5c4n2[B-]3(F)F)cc(OC)c1OC` came in with an emission maximum of 820 nm.
`Cc1ccc(-c2ccc(/C=C/c3ccccc3)cn2)nc1` returned an emission maximum (in CC#N) of 392 nm.
For `C=Cc1cc2ccc(OC(=O)c3ccccc3)cc2oc1=O`, for the setting “in CC#N”, the emission maximum is on record as 420 nm.
In turn, `COc1ccc(-c2nc(-c3ccc(C#N)cc3)[nH]c2-c2ccc(OC)cc2)cc1` displayed an emission maximum (in CO) of 473 nm.
As for `C[Si](C)(C)c1ccc([Si](C)(C)C)c2ccccc12`, the emission maximum (in C1CCCCC1) is on record as 333 nm.
For the molecule `COc1ccc(C(=Cc2ccc(C=O)cc2)c2ccc(OC)cc2)cc1`, the emission maximum (in C1CCOC1) was determined as 396 nm.
